From patent US5124322A, “Dipeptide collagenase inhibitors” (Beecham Group p.l.c., priority 1988, dated 1992)
Where two headings read alike, the source gives them in different places.

Target: T1, human lung fibroblast collagenase (Homo sapiens, UniProt P03956)
T1 construct: from culture supernatants from the human lung fibroblast cell line, WI-38; endogenous in cells; host or cells: WI-38 human lung fibroblast cell line (culture supernatant)
T1 sequence (P03956 100-469): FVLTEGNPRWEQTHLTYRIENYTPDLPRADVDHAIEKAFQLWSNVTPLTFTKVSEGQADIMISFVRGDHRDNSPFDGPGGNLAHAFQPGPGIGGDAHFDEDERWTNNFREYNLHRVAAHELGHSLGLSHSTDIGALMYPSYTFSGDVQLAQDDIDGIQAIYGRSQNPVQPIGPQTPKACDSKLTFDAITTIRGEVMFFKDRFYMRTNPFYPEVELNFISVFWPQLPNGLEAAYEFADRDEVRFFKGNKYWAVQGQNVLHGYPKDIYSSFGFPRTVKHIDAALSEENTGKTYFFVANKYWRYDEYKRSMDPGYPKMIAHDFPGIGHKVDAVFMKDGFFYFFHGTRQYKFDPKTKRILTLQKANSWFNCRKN
Assay: Collagenase inhibitor assay, human lung fibroblast collagenase (14C-collagen fibril degradation)
Assay type: biochemical
Conditions: collagenase from WI-38 culture supernatants
Experimental: The test is performed essentially as in Cawston and Barrett, Anal. Biochem. 99, 340-345 (1979). Compounds for testing are dissolved in methanol and added to collagenase (purified from cultures of rabbit bone or from culture supernatants from the human lung fibroblast cell line, WI-38) in buffer. In order to ensure that thiol collagenase inhibitors remained unoxidised, β-mercaptoethanol may be incorporated in the methanol solvent and/or the diluent buffers. The minimal direct effect of β-mercaptoethanol on the degradation of collagen by human or rabbit collagenase is controlled for. After a 5-15 min pre-incubation at 37° C., the assay tubes are cooled to 4° C. and ^14 C-acetylated rat skin […] collagen is added. The assay tubes are incubated at 37° C. overnight. The ^14 C-collagen forms insoluble fibrils which are the substrate for the enzyme.
To terminate the assay, the assay tubes are spun at 12000 rpm for 15 min. Undigested ^14 C-collagen is pelleted, while digested ^14 C-collagen is found as soluble peptides in the supernatant. A sample of the supernatant is taken for liquid scintillation counting.
The activity of collagenase inhibitors (IC50 : 50% inhibitory concentration) is expressed as that concentration of compound that inhibits a known (standard) concentration of enzyme by 50%.

[1] = * = +mercaptoethanol, read-out: IC50, Inhibition of human lung fibroblast collagenase, +mercaptoethanol
[2] = without mercaptoethanol, read-out: IC50, Inhibition of human lung fibroblast collagenase

IC50 [1] | IC50 [2] | Molecule
0.25 µM | 1.8 µM | CNC(=O)[C@H](Cc1ccc(OC)cc1)NC(=O)C(Cc1ccc(Cl)cc1S)CC(C)C (stereo partly drawn) [Example 5, 4-Chloro-2-mercapto-N-[2-(4-methoxyphenyl)-1-(S)-(methylaminocarbonyl)ethyl]-α-(2-methylpropyl)phenylpropanamide]
0.19 µM | 1.5 µM | 4-Chloro-2-mercapto-N-[2-(3-indolyl)-1-(S)-(methyl-aminocarbonyl)ethyl]-α-(2-methylpropyl)phenylpropanamide [Example 8]
